Assays:
[1] = molecular target: T1, elastase type III (Sus scrofa, UniProt P00772); assay: Inhibitory effect of elastase activity; type: biochemical; settings: EGCG 250 μM as positive control; 25° C., 15 minutes, pH 8.0
T1 construct: purchased Sigma-Aldrich, U.S.A. E0127
Protocol: The inhibitory effect of elastase activity of the extract of green tea cultivated by extreme light-shielding on anti-aging was measured in comparison with that of EGCG. The elastase and the substrate used herein were purchased from Sigma-Aldrich, […]0127). The inhibitory function of elastase activity was tested according to the following method. In a 96-well plate, […] (200 μL) and 50 μL of a 20 μg/mL elastase type III solution were mixed with a […] Tris-HCL buffer solution (pH 8.0). EGCG 250 μM was used as a positive control, and purified water was used as a non-treated group, which was a negative control. […] After completion of the reaction, the absorbance at the wavelength of 415 nm was measured. […] The inhibitory function of elastase was calculated according to the following Mathematical Formula 2, and the results are shown in Table 10. […] A: Absorbance at the wavelength of 415 nm in the absence of the test material and in the presence of enzyme B: Absorbance at the wavelength of 415 nm in the absence of the test material and enzyme C: Absorbance at the wavelength of 415 nm in the presence of the test material and enzyme D: Absorbance at the wavelength of 415 nm in the presence of the test material and in the absence of enzyme

[2] = test system: collagenase (MMP-1); assay: Collagenase (MMP-1) production in human fibroblasts (ELISA); type: cell-based; settings: 10 μg/ml, 24 hours, non-treated group = 100
Protocol: The collagenase production inhibitory effect of the present invention on wrinkle improvement was measured in comparison with retinoic acid.
Human fibroblasts were seeded at 5,000 cells/well in a 96-well microtiter plate filled with a Dulbecco's modified eagle's medium (DMEM) containing 2.5% fetal bovine serum and cultured in a 5% CO2 incubator at 37° C. until they grew by about 70 to 80%. The cells were treated with the extracts of Examples 1 and 2 and Comparative Examples 1 and 3 or retinoic acid at a concentration of 10 μg/ml for 24 hours, and the cell culture was collected.
The production yield of collagenase in the collected cell culture was measured using a collagenase measurement instrument commercially available (Catalog #. RPN 2610, manufactured by Amersham Pharma Inc., USA). […]
The absorbance of the yellow-colored 96-well plate was measured at 405 nm with a spectrophotometer, and the expression level of collagenase was calculated according to the following Mathematical Formula 1. At this time, the absorbance of the cell culture collected from the group not treated with the composition was considered as the control group. Expression level of collagenase (%)=Absorbance of substance-treated cell group/Absorbance of control group×100 [Mathematical Formula 1]

T1 sequence (P00772 27-266): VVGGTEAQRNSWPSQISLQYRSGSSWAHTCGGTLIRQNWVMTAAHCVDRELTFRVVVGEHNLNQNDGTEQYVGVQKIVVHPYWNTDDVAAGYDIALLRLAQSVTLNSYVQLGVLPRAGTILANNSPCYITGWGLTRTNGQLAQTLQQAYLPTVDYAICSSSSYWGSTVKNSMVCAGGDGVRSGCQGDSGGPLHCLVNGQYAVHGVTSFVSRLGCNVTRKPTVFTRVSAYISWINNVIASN

Row | Inhibition level of elastase activity [1] [%] | Compound | Expression level of collagenase [2] [%]
1 | 65 | O=C(O[C@@H]1Cc2c(O)cc(O)cc2O[C@@H]1c1cc(O)c(O)c(O)c1)c1cc(O)c(O)c(O)c1 [EGCG] | –
2 | – | CC1=C(/C=C/C(C)=C/C=C/C(C)=C/C(=O)O)C(C)(C)CCC1 [Retinoic acid, retinoic acid] | 75
